How the values were obtained:
[1] = test system: VILI mouse model of mechanical injury to the lungs; assay: VILI mouse model: flow cytometric analyses of lung cell suspensions (leukocyte numbers, ICAM-1 surface expression); format: in vivo; details: male C57/BL6 mice, oral 250 mg/kg pre-treatment, high tidal volume ventilation, flow cytometry, FIG. 2
Method: Orvepitant was evaluated in a VILI mouse model of mechanical injury to the lungs. Male C57/BL6 mice were pre-treated with oral orvepitant (250 mg/kg) or vehicle control (10 ml/kg, 0.1% tween 80:0.5% hydroxypropyl methylcellulose [HPMC]), approximately 30 minutes before initiation of experimental ventilation. Mice were anesthetized and tracheotomised for ventilation. The left carotid artery was cannulated to monitor blood pressure (BP), infuse heparinised saline (0.4 ml/hr of 10 units/ml of heparin), and measure sequential blood gas analyses. Airway pressure was monitored continuously, while respiratory mechanics including respiratory resistance (Rrs) and elastance (Ers), were measured at predetermined intervals by end-inflation occlusion. Vehicle-treated or orvepitant-treated animals were ventilated with high tidal volume (33-37 ml/kg) for up to 150 minutes or until a mortality surrogate (increase of >25% peak inspiratory pressure) was reached. As a control group, vehicle-treated animals only were ventilated with low tidal volume (8-9 ml/kg) to confirm the impact of injurious ventilation. Following termination, bronchoalveolar lavage fluid (BAL) was collected for analysis and lungs were processed for flow cytometric evaluation of leukocyte numbers and expression of ICAM-1 on alveolar macrophages and epithelial cells. Data were evaluated for normality by Shapiro-Wilk test of residuals and QQ plots. Normally distributed data were evaluated by t-test for end-point analysis, or 2-way ANOVA for time courses. Non-normally distributed data were evaluated by Mann-Whitney U test. N=6-7 animals for each dataset. Flow cytometric analyses. Lung cell suspensions were evaluated for quantification of neutrophils and Ly6C high inflammatory (Ly6CN) monocytes by flow cytometry. […] Activation of alveolar macrophages and type 1 and type 2 epithelial cells was determined by assaying for surface expression of ICAM-1.

[2] = test system: VILI mouse model of mechanical injury to the lungs; assay: VILI mouse model: physiological variables (peak inspiratory pressure, elastance); format: in vivo, mice
Method: Orvepitant was evaluated in a VILI mouse model of mechanical injury to the lungs.
Male C57/BL6 mice were pre-treated with oral orvepitant (250 mg/kg) or vehicle control (10 ml/kg, 0.1% tween 80:0.5% hydroxypropyl methylcellulose [HPMC]), approximately 30 minutes before initiation of experimental ventilation.
Mice were anesthetized and tracheotomised for ventilation. The left carotid artery was cannulated to monitor blood pressure (BP), infuse heparinised saline (0.4 ml/hr of 10 units/ml of heparin), and measure sequential blood gas analyses. Airway pressure was monitored continuously, while respiratory mechanics including respiratory resistance (Rrs) and elastance (Ers), were measured at predetermined intervals by end-inflation occlusion. Vehicle-treated or orvepitant-treated animals were ventilated with high tidal volume (33-37 ml/kg) for up to 150 minutes or until a mortality surrogate (increase of >25% peak inspiratory pressure) was reached. As a control group, vehicle-treated animals only were ventilated with low tidal volume (8-9 ml/kg) to confirm the impact of injurious ventilation. Following termination, bronchoalveolar lavage fluid (BAL) was collected for analysis and lungs were processed for flow cytometric evaluation of leukocyte numbers and expression of ICAM-1 on alveolar macrophages and epithelial cells.
Data were evaluated for normality by Shapiro-Wilk test of residuals and QQ plots. Normally distributed data were evaluated by t-test for end-point analysis, or 2-way ANOVA for time courses. Non-normally distributed data were evaluated by Mann-Whitney U test. N=6-7 animals for each dataset.

[3] = test system: VILI mouse model of mechanical injury to the lungs; assay: VILI mouse model: bronchoalveolar lavage fluid (BAL) markers; format: in vivo; details: male C57/BL6 mice, oral 250 mg/kg pre-treatment, high tidal volume ventilation; FIG. 3
Method: Orvepitant was evaluated in a VILI mouse model of mechanical injury to the lungs. Male C57/BL6 mice were pre-treated with oral orvepitant (250 mg/kg) or vehicle control (10 ml/kg, 0.1% tween 80:0.5% hydroxypropyl methylcellulose [HPMC]), approximately 30 minutes before initiation of experimental ventilation. Mice were anesthetized and tracheotomised for ventilation. The left carotid artery was cannulated to monitor blood pressure (BP), infuse heparinised saline (0.4 ml/hr of 10 units/ml of heparin), and measure sequential blood gas analyses. Airway pressure was monitored continuously, while respiratory mechanics including respiratory resistance (Rrs) and elastance (Ers), were measured at predetermined intervals by end-inflation occlusion. Vehicle-treated or orvepitant-treated animals were ventilated with high tidal volume (33-37 ml/kg) for up to 150 minutes or until a mortality surrogate (increase of >25% peak inspiratory pressure) was reached. As a control group, vehicle-treated animals only were ventilated with low tidal volume (8-9 ml/kg) to confirm the impact of injurious ventilation. Following termination, bronchoalveolar lavage fluid (BAL) was collected for analysis and lungs were processed for flow cytometric evaluation of leukocyte numbers and expression of ICAM-1 on alveolar macrophages and epithelial cells. Data were evaluated for normality by Shapiro-Wilk test of residuals and QQ plots. Normally distributed data were evaluated by t-test for end-point analysis, or 2-way ANOVA for time courses. Non-normally distributed data were evaluated by Mann-Whitney U test. N=6-7 animals for each dataset. Bronchoalveolar lavage fluid (BAL) markers. BAL total protein concentration was measured as a marker of alveolar-epithelial barrier permeability.

## Cc1cc(F)ccc1[C@H]1C[C@@H](N2CCN3C(=O)CC[C@H]3C2)CCN1C(=O)N(C)[C@H](C)c1cc(C(F)(F)F)cc(C(F)(F)F)c1 [orvepitant]
[1]; vs vehicle
  Ly6C high inflammatory monocyte numbers within lung tissue: significant decrease
  Neutrophil numbers within lung tissue: significant decrease
[1]
  Upregulation of ICAM-1 surface expression on alveolar macrophages: significantly attenuated
  Upregulation of ICAM-1 surface expression on type 1 epithelial cells: significantly attenuated
  Upregulation of ICAM-1 surface expression on type 2 epithelial cells: significantly attenuated
[2]; male C57/BL6 mice, oral 250 mg/kg approx. 30 min before ventilation, vs vehicle
  Peak inspiratory pressure at the start of ventilation: identical between vehicle and orvepitant pre-treated animals
[2]; male C57/BL6 mice, oral 250 mg/kg pre-treatment, high tidal volume (33-37 ml/kg) ventilation up to 150 min, vs vehicle, FIG. 1
  Course of peak inspiratory pressure change over time: significantly different between groups
[2]; male C57/BL6 mice, oral 250 mg/kg pre-treatment, high tidal volume ventilation, 150 min or mortality surrogate, vs vehicle, FIG. 1
  'End' peak inspiratory pressure (final value recorded): significantly higher in vehicle-treated animals than those receiving orvepitant
[2]; male C57/BL6 mice, oral 250 mg/kg pre-treatment, high tidal volume ventilation, vs vehicle, FIG. 1
  Changes in respiratory system elastance over time: differences between groups did not quite achieve statistical significance
[2]; mice, oral pretreatment
  Mechanical lung injury induced by mechanical ventilation (overall conclusion): substantial, significant attenuation
[3]
  Increase in BAL IL-6: significantly attenuated
  Increase in BAL MCP-1 [CCL-2]: significantly attenuated
  Increase in BAL TGF-β: significantly attenuated
  Increase in BAL total protein concentration (marker of alveolar-epithelial barrier permeability): significantly attenuated

Reference: US11872222B2, “Uses” (NeRRe Therapeutics Limited, priority 2020, dated 2024)
